# Experimental data from US10561638B2, “Methods for treating dependence” (Biotie Therapies, Inc., priority 2007, dated 2020).
# Legend:
# [1] = system: tissue norepinephrine and dopamine levels; assay: Tissue catecholamines in beagle dogs, 10, 30, 60 mg/kg/day for 4.5 days; format: in vivo
# Procedure: This study was performed to determine the dopamine and norepinephrine concentrations in kidney medulla and kidney cortex from dogs dosed with nepicastat. Adult male beagle dogs were randomly assigned to four groups of 8 dogs per group and dosed by oral administration with nepicastat. Nepicastat was delivered in doses of 5, 15 and 30 mg/kg placed in single capsules. Vehicle was an empty capsule. Each dog received 2 doses daily, morning and afternoon (8-10 hours apart) for four days. On the fifth day, each dog received a single dose in the morning and the dogs were euthanized six hours after the last dose. Samples of kidney medulla and kidney cortex were rapidly harvested, weighed, placed in cold 0.4 M perchloric acid, frozen in liquid nitrogen and stored at −70° C.
# To quantitate concentrations of norepinephrine (NE) and dopamine (D), each tissue was homogenized by brief sonication in 0.4 M perchloric acid. After sonication, the homogenates were centrifuged at 13,000 rpm in a microfuge for 30 minutes at 4° C. An aliquot of each supernatant was removed and spiked with 3,4-dihydroxybenzylamine (DHBA) as internal standard. The extract from each sample was subjected to HPLC separation using electrochemical detection. The method has a quantitation limit of 2.0 ng/mL and a linear range of 2.0 ng/mL to 400 ng/mL for each analyte.
# Thirty-two male beagle dogs, weighing 10-12 kg, were randomly assigned to one of the following 4 treatment groups (n=8 per group): nepicastat at 0 mg/kg/day (placebo), 10 mg/kg/day (5 mg/kg b.i.d.), 30 mg/kg (15 mg/kg b.i.d.), or 60 mg/kg/day (30 mg/kg b.i.d.). Dog numbers 1-16 were assigned as dose group A and dog numbers 17-32 as dose group B. The terminal surgery for tissue harvest was performed over 2 days with 16 animals studied per day. Two or 3 days before the first compound administration each dog was weighed and skin regions overlying both cephalic, saphenous and jugular veins were shaved. Dosing consisted of oral administration of one capsule with the second given 8-10 hr later. Dogs were dosed as scheduled on days 1-3. On day 4, prior to the AM dose, 3 ml of blood were obtained from a jugular vein for determination of baseline plasma compound levels. The dog was then administered the AM dose, and at 1, 2, 4 and 8 hr following the dose additional 3 ml blood samples were collected for determination of plasma compound levels. Blood samples were put into tubes containing heparin, centrifuged at 4° C. and stored at −20° C. until analysis. The PM dose was then administered as scheduled. The AM dose was administered as scheduled on the days of surgery. Approximately 6 hr after the AM dose, a final 3 ml blood sample was taken from the jugular vein for determination of plasma compound levels. The dog was then anesthetized with pentobarbital Na (˜40 mg/kg), given i.v. in a cephalic or saphenous vein, and delivered to the necropsy room where an additional dose of pentobarbital Na was given (˜80 mg/kg, iv). The left ventricle, renal artery, kidney, renal medulla, renal cortex and cerebral cortex were then rapidly harvested, weighed, put into 2 ml iced 0.4M perchloric acid, frozen in liquid nitrogen and stored at −70° C. until analysis for catecholamines by HPLC using electrochemical detection. All tissue samples were divided into 2 portions, the second of which were immediately frozen in liquid nitrogen and stored at −70° C. for determination of tissue compound levels. A third transmural sample taken from the left ventricle was immediately frozen in liquid nitrogen and stored at −70° C. for use in receptor binding studies.
# Ventricles were homogenized in 50 mM Tris-HCl, 5 mM Na2EDTA buffer (pH 7.4 at 4° C.) using a Polytron P-10 tissue disrupter (setting 10, 2×15 second bursts). Homogenates were centrifuged at 500×g for 10 minutes and the supernatants stored on ice. The pellets were washed by resuspension and centrifugation at 500×g and the supernatants combined. […]
# [2] = system: plasma dopamine/norepinephrine; assay: Plasma dopamine/norepinephrine in congestive heart failure patients; format: in vivo, human
# Procedure: In studies of congestive heart failure patients, changes in plasma dopamine levels, norepinephrine levels, and dopamine/norepinephrine ratios after treatment with nepicastat in a 10 day study were determined.
# In studies of congestive heart failure patients, plasma dopamine levels, norepinephrine levels, and dopamine/norepinephrine ratios and changes of the levels and the ratios after treatment with nepicastat in a 30 day study were determined.
# [3] = renal medulla, 60 mg/kg/day, marginal (0.05<p<0.10)
compound,measurement,setting,value
"Cl.NCc1c[nH]c(=S)n1[C@H]1CCc2c(F)cc(F)cc2C1 [nepicastat, (S)-5-Aminomethyl-1-(5,7-difluoro-1,2,3,4-tetrahydronaphth-2-yl)-2,3-dihydro-2-thioxo-1H-imidazole hydrochloride]",increase in dopamine,"[1]; cerebral cortex, 10 mg/kg/day",632%
same,increase in dopamine/norepinephrine ratio,"[1]; cerebral cortex, 10 mg/kg/day",531%
same,decrease in norepinephrine,"[1]; cerebral cortex, 30 mg/kg/day",63%
same,increase in dopamine/norepinephrine ratio,"[1]; cerebral cortex, 30 mg/kg/day",86%
same,increase in dopamine,"[1]; cerebral cortex, 30 mg/kg/day, marginal (0.05<p<0.10)",174%
same,increase in dopamine,"[1]; cerebral cortex, 60 mg/kg/day",411%
same,increase in dopamine/norepinephrine ratio,"[1]; cerebral cortex, 60 mg/kg/day",612%
same,norepinephrine levels vs placebo,"[1]; cerebral cortex, 10 and 60 mg/kg/day",not significantly (p>0.01) affected
same,dose at which the plateau in DBH inhibition response begins,"[1]; heart, renal artery and kidney",10 mg/kg/day
same,decrease in norepinephrine,"[1]; left ventricle, 10 mg/kg/day",85%
same,increase in dopamine/norepinephrine ratio,"[1]; left ventricle, 10 mg/kg/day",852%
same,decrease in norepinephrine,"[1]; left ventricle, 30 mg/kg/day",58%
same,increase in dopamine/norepinephrine ratio,"[1]; left ventricle, 30 mg/kg/day",279%
same,decrease in norepinephrine,"[1]; left ventricle, 60 mg/kg/day",79%
same,increase in dopamine/norepinephrine ratio,"[1]; left ventricle, 60 mg/kg/day",607%
same,dopamine levels vs placebo,"[1]; left ventricle, 10, 30 and 60 mg/kg/day",No significant changes
same,decrease in norepinephrine,"[1]; renal artery, 10 mg/kg/day",86%
same,increase in dopamine,"[1]; renal artery, 10 mg/kg/day",180%
same,increase in dopamine/norepinephrine ratio,"[1]; renal artery, 10 mg/kg/day",1711%
same,decrease in norepinephrine,"[1]; renal artery, 30 mg/kg/day",81%
same,increase in dopamine,"[1]; renal artery, 30 mg/kg/day",273%
same,increase in dopamine/norepinephrine ratio,"[1]; renal artery, 30 mg/kg/day",1767%
same,decrease in norepinephrine,"[1]; renal artery, 60 mg/kg/day",85%
same,increase in dopamine,"[1]; renal artery, 60 mg/kg/day",268%
same,increase in dopamine/norepinephrine ratio,"[1]; renal artery, 60 mg/kg/day",1944%
same,decrease in norepinephrine,"[1]; renal cortex, 10 mg/kg/day",86%
same,increase in dopamine,"[1]; renal cortex, 10 mg/kg/day",156%
same,increase in dopamine/norepinephrine ratio,"[1]; renal cortex, 10 mg/kg/day",1653%
same,decrease in norepinephrine,"[1]; renal cortex, 30 mg/kg/day",66%
same,increase in dopamine,"[1]; renal cortex, 30 mg/kg/day",502%
same,increase in dopamine/norepinephrine ratio,"[1]; renal cortex, 30 mg/kg/day",1440%
same,decrease in norepinephrine,"[1]; renal cortex, 60 mg/kg/day",85%
same,increase in dopamine,"[1]; renal cortex, 60 mg/kg/day",208%
same,increase in dopamine/norepinephrine ratio,"[1]; renal cortex, 60 mg/kg/day",1693%
same,decrease in norepinephrine,"[1]; renal medulla, 10 mg/kg/day",72%
same,increase in dopamine/norepinephrine ratio,"[1]; renal medulla, 10 mg/kg/day",555%
same,increase in dopamine,"[1]; renal medulla, 10 mg/kg/day, marginal (0.05<p<0.10)",150%
same,increase in dopamine,"[1]; renal medulla, 30 mg/kg/day",522%
same,increase in dopamine/norepinephrine ratio,"[1]; renal medulla, 30 mg/kg/day",636%
same,increase in dopamine/norepinephrine ratio,"[1]; renal medulla, 60 mg/kg/day",677%
same,decrease in norepinephrine,[1]; [3],69%
same,increase in dopamine,[1]; [3],156%
same,dopamine/norepinephrine levels,[2]; 10 day study,increased dopamine/norepinephrine levels
same,dopamine/norepinephrine levels,[2]; 30 day study,increased dopamine/norepinephrine levels
